Experimental findings from PubChem BioAssay (NCI) are described below.

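Values below derive from 48-hour exposures of cells grown in 96-well plates, with endpoints linearly interpolated between the two concentrations bracketing the appropriate inhibition level. GI50 marks 50% less growth. At the TGI there is no net growth.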 Bounds are passed on as bounds.

Some test systems named below: A498 renal; A549 NSCLC; CAKI-1 renal; HCC-2998 colon; HCT-15 colon; HT29 colon; KM12 colon; MOLT-4 leukemia; NCI-H226 lung; OVCAR-5 ovarian; RXF 393 renal; SK-OV-3 ovarian; SNB-19 CNS; UACC-257 melanoma; UACC-62 melanoma; MALME-3M melanoma.
Holding throughout (assay): inhibition of tumour cell growth, NCI panel, 48 h

As for `CC(=O)C(C(=O)C(=O)Nc1cc(Cl)c(Cl)cc1Cl)c1csc(N)n1` (stereo not given), the TGI in the test on A498 renal, in the test on A549 NSCLC, in the test with CAKI-1 renal, with HCC-2998 colon, in the test on HCT-15 colon and in the test on HT29 colon was more than 100 µM throughout. Moreover, the TGI in the test on KM12 colon, in the test on MOLT-4 leukemia, with NCI-H226 lung, in the test on OVCAR-5 ovarian, in the test with RXF 393 renal and in the test with SK-OV-3 ovarian was more than 100 µM each time. In addition, the TGI in the test on SNB-19 CNS, with UACC-257 melanoma and in the test on UACC-62 melanoma was more than 100 µM throughout.

Consider `CCCCCC1CC(C(C)=O)CN1c1ccc(F)cc1` (stereo not given), for which the TGI with A498 renal, in the test on A549 NSCLC, in the test on HCC-2998 colon, with HCT-15 colon, in the test on HT29 colon and in the test on KM12 colon was more than 100 µM in each case. In addition, the TGI in the test on MALME-3M melanoma was more than 100 µM; in the test with OVCAR-5 ovarian, more than 100 µM; in the test with RXF 393 renal it was more than 100 µM; with SNB-19 CNS it was more than 10 µM; with UACC-257 melanoma it was more than 100 µM.

As to `O=[N+]([O-])c1cc(C(F)(F)F)cc2c1SC1=Nc3ccccc3CN12`, the TGI in the test on A498 renal, in the test on A549 NSCLC, with CAKI-1 renal, with HCC-2998 colon, with HCT-15 colon and in the test with HT29 colon was more than 100 µM in each case. Moreover, the TGI in the test with KM12 colon, in the test with MALME-3M melanoma, in the test on MOLT-4 leukemia, in the test with NCI-H226 lung, in the test with OVCAR-5 ovarian and with RXF 393 renal was more than 100 µM in each case. Also, the TGI with SK-OV-3 ovarian, in the test on SNB-19 CNS, in the test on UACC-257 melanoma and with UACC-62 melanoma was more than 100 µM in each case.

Turning to `NCCCC(N)(C(=O)O)C(F)F` (stereo not given), the TGI in the test on A498 renal, with A549 NSCLC, in the test with CAKI-1 renal, in the test with HCC-2998 colon, in the test on HCT-15 colon and in the test on HT29 colon was more than 5000 µM each time. The TGI in the test on KM12 colon is more than 5000 µM; in the test on MALME-3M melanoma it was more than 5000 µM; in the test on MOLT-4 leukemia, more than 5000 µM; in the test on NCI-H226 lung, more than 5000 µM; with OVCAR-5 ovarian, more than 4800 µM; with RXF 393 renal, more than 5000 µM. Besides, the TGI in the test on SK-OV-3 ovarian, in the test on SNB-19 CNS, in the test on UACC-257 melanoma and in the test with UACC-62 melanoma was more than 5000 µM throughout.

Regarding `O=C(N/N=C/c1cc(Cl)cc(Cl)c1[O-])c1ccccc1O.O=C(N/N=C/c1cc(Cl)cc(Cl)c1[O-])c1ccccc1O.[Cu+2]`, the GI50 in the test on A549 NSCLC is 0.385 µM; in the test on KM12 colon, 0.442 µM; in the test with MALME-3M melanoma, 0.367 µM; in the test on MOLT-4 leukemia, 0.285 µM. The TGI in the test on A549 NSCLC came out at 1.65 µM; in the test with CAKI-1 renal it was 1.13 µM; with HCC-2998 colon, 1.46 µM; in the test on HCT-15 colon, 1.61 µM; in the test with HT29 colon it was 2.06 µM; with KM12 colon it was 1.59 µM. The TGI stood at 1.38 µM with MALME-3M melanoma; 2.12 µM in the test on MOLT-4 leukemia; 1.92 µM in the test on OVCAR-5 ovarian; 0.766 µM in the test with RXF 393 renal; 1.38 µM in the test on SK-OV-3 ovarian; 2.05 µM in the test on SNB-19 CNS. The TGI is 0.914 µM in the test on UACC-257 melanoma and 0.819 µM with UACC-62 melanoma.

Turning to `CCn1c(=O)c2c3ccc(O)cc3[nH]c2c2ccc(O)cc21`, the TGI in the test with A498 renal, in the test on A549 NSCLC, in the test on CAKI-1 renal, in the test on HCC-2998 colon, in the test with HCT-15 colon and in the test on HT29 colon was more than 100 µM in each case. Besides, the TGI in the test on KM12 colon, in the test with MALME-3M melanoma, with MOLT-4 leukemia, with NCI-H226 lung, in the test with OVCAR-5 ovarian and with RXF 393 renal was more than 100 µM throughout. The TGI in the test with SK-OV-3 ovarian, in the test on SNB-19 CNS, in the test with UACC-257 melanoma and in the test with UACC-62 melanoma was more than 100 µM in each case.

As for `CCN(CC)CCCNC(=O)c1ccccc1Nc1c(Cl)cccc1Cl`, the TGI came to 31.5 µM in the test with A549 NSCLC; 21.3 µM with HCC-2998 colon; 25.2 µM with HCT-15 colon; 16.5 µM in the test with HT29 colon; 27.9 µM in the test with MOLT-4 leukemia; 28.6 µM in the test on NCI-H226 lung. The TGI was 24.3 µM in the test on OVCAR-5 ovarian; 23 µM in the test with RXF 393 renal; 27.7 µM in the test with SK-OV-3 ovarian; 29.1 µM in the test with SNB-19 CNS; 7.45 µM with UACC-257 melanoma; 25.3 µM in the test on UACC-62 melanoma.

As for `CCC/C=C/C=C\C(=O)O[C@@H]1[C@@H](C)[C@]2(O)[C@@H]3C=C(C)C(=O)[C@H]3CC(COC(C)=O)=C[C@H]2[C@@H]2C(C)(C)[C@]12OC(C)=O`, the TGI in the test with A498 renal was 33.3 µM; in the test with A549 NSCLC it was 97.6 µM; in the test on CAKI-1 renal, 72.2 µM; with HCC-2998 colon, 58.3 µM; in the test with HCT-15 colon, 77.1 µM; with HT29 colon it was 84.6 µM. Further, the TGI in the test on KM12 colon was 106 µM; in the test with MALME-3M melanoma, 86.6 µM; in the test with MOLT-4 leukemia, 85.2 µM; with NCI-H226 lung, more than 97.6 µM; with OVCAR-5 ovarian it was 119 µM; with RXF 393 renal it was 113 µM. The TGI with SK-OV-3 ovarian was found to be 143 µM; in the test on SNB-19 CNS it was 114 µM; in the test on UACC-257 melanoma, 91.5 µM; with UACC-62 melanoma, 82.5 µM.
